How the values were obtained:
Legionella = type: cell-based; conditions: natural water samples, 37° C., after ten days
A. thaliana = assay: Germination and seedling size of A. thaliana on agar containing inhibitor; conditions: for root and cotyledons formation: 260 μM (glyphosate equimolar)

Row | Structure (SMILES) | number of CFUs of Legionella, times lower compared to the control (Legionella) | gravitropism of the seedlings (A. thaliana; 260 μM) | root and cotyledons formation (A. thaliana) | size of the seedlings (A. thaliana; 260 μM, 7 days of germination) | size of the seedlings compared to the control (A. thaliana; 260 μM, 7 days of germination) | germination process (A. thaliana; 130-260 μM) | inhibitory capacity on A. thaliana compared to glyphosate (seedling-size and morphological appearance) (A. thaliana; concentrations higher than 130 μM (~25 μg/mL)) | growth inhibitory effects on A. thaliana (A. thaliana; concentrations up to 50 μM, 7 days of germination)
1 | C[C@@H](O)[C@@H](O)[C@@H](O)[C@H](O)C(=O)CO [7dSh, 7-deoxy-D-altro-heptulose] | 4-5 times lower | impaired in gravitropism | only minor root and cotyledons formation was observed | ~2 mm | three times lower | came to an arrest within the first days | significant increased inhibitory capacity | comparable to glyphosate
2 | O=C(O)CNCP(=O)(O)O [glyphosate, reference compound] |  |  | developed further and showed more distinct root and cotyledons formation |  |  |  |  | 

— patent US11518777B2, “Inhibitors of the shikimate pathway” (Eberhard Karls Universität Tübingen, priority 2017, dated 2022)
